Assay results as given in US20230399314A1, “CD73 INHIBITOR AND USE THEREOF” (WUHAN HUMANWELL INNOVATIVE DRUG RESEARCH AND DEVELOPMENT …, priority 2020, published 2023).

Assays:
[1] = Pharmacokinetic test on mice; format: in vivo, male ICR mice; settings: male, ICR, plasma, mouse; for AUC(0-t): read-out: AUC0-t; for Cmax: read-out: Cmax; for Tmax: read-out: Tmax; for Vd: read-out: Vz
Description: (§1) In a pharmacokinetic test on mice, male ICR mice of 20 g to 25 g were used and fasted overnight. 3 mice were selected for orally intragastric administration (10 mg/kg). Before administration, and 15 min, 30 min, 1 h, 2 h, 4 h, 8 h, and 24 h after administration, blood was sampled from each mouse. Another 3 mice were selected for intravenous injection administration (3 mg/kg), and before administration, and 15 min, 30 min, 1 h, 2 h, 4 h, 8 h, and 24 h after administration, blood was sampled from each mouse. The blood sample was centrifuged at 6,800 g and 2 to 8° C. for 6 min, and plasma was collected and stored at −80° C. The plasma of each time point was vortex-mixed for 1 min with an acetonitrile solution containing the internal standard with a volume 3-5 times that of the plasma of each time point, and centrifuged at 13,000 rpm and 4° C. for 10 min, a supernatant was collected and mixed with water with a volume 3 times that of the supernatant, and an appropriate amount of the mixed solution was used for LC-MS/MS analysis. The main pharmacokinetic parameters were analyzed by using a WinNonlin 7.0 non-compartmental model.

[2] = tested on: Human CD4+ T cells; test: Relieving AMP-induced proliferation inhibition of human CD4+ T cells (CCK8); format: cell-based; settings: Homo sapiens, 120 h, AMP 0.3 mM, day 5
Description: On day 1 of the experiment, CD4^+ T cells (Allcells Shanghai, PB009-2F-C) were thawed, and inoculated into two replicate wells according to 3×10^4 cells/well and 50 μL/well. The compound was diluted with a complete medium to form a stock solution (4×) of an appropriate concentration gradient, the compound solution was added to the above cells according to 50 μL/well, and the mixture was pre-incubated at 37° C. for 30 min. […] Meanwhile, a positive reference group (Human CD4^+ T+IL-2+CD3/CD28 beads) and a negative reference group (Human CD4^+ T+IL-2+CD3/CD28 beads+AMP) were set. AMP (Sigma; A1752-5G) was diluted with a complete medium to form an AMP solution (4×), the AMP solution was added to the above cells according to 50 μL/well, the final concentration was 0.3 mM, and the mixture was incubated at 37° C. On day 3 of the experiment, the AMP solution was added to the above plate according to 20 μL/well, and the final concentration was 0.3 mM. On day 5, the proliferation of the cells was detected by using a CCK8 kit (DojinDO; CK04).
Inhibition rates of the compound at different concentrations in relieving AMP-induced proliferation inhibition of CD4^+ T cells were calculated according to the following formula, the concentration of the compound was taken as the X-axis, the inhibition rate was taken as the Y-axis, and an EC50 value of the compound in relieving the AMP-induced proliferation inhibition of CD4^+ T cells was calculated by using Prism software.

[3] = Plasma protein binding by equilibrium dialysis, canine plasma; format: in vitro ADME; settings: dog, 37° C.
Description: (§2) Plasma protein binding rates of the compounds were detected by equilibrium dialysis (HTDialysis, HTD 96b). The compound was diluted with DMSO to form a 0.5 mM stock solution, and the stock solution was diluted 25 times with a 0.05 M sodium phosphate buffer to form a 20 μM working solution. Plasma was placed in a new 96-well plate according to 380 μL/well, then the working solution was added to and uniformly mixed with the plasma according to 20 μL/well, the final concentration of the compound was 1 μM, and each well contained 0.2% DMSO.
(§3) 100 μL of 0.05 M sodium phosphate buffer was added to a receiving side of each dialysis chamber (HTD 96b), and 100 μL of plasma containing the compound was added to a supply side. The dialysis apparatus was closed with a plastic lid, and incubated with shaking at 37° C. for 5 h.
(§4) After the incubation was completed, 25 μL of sample was collected respectively from the supply side and the receiving side of the dialysis chamber, and placed in a new 96-well plate, an equal volume of blank plasma was added to and uniformly mixed with each sample on the supply side, an equal volume of 0.05 M sodium phosphate buffer was added to and uniformly mixed with each sample on the receiving side. 200 μL of acetonitrile solution containing the internal standard was added to each well, the 96-well plate was vortex-shaken at 600 rpm for 10 min, and centrifuged at 5,594 g for 15 min (Thermo Multifuge×3R), 50 μL of supernatant was transferred to a new 96-well plate, and the sample was mixed with 50 μL of ultrapure water and subjected to LC-MS/MS analysis.
(§5) A plasma protein binding rate and a fraction unbound in plasma were calculated according to the following formulas:
(§6) % binding rate=100×([supply side concentration]5h−[receiving side concentration]5h)/[supply side concentration]5h; and
(§7) % fraction unbound in plasma=100−% binding rate.

[4] = Plasma protein binding by equilibrium dialysis, mouse plasma; format: in vitro ADME; settings: 37° C.
Description: as §2, §3, §4, §5, §6, §7

[5] = tested on: A375 melanoma; test: In vivo efficacy on A375 melanoma (PBMC + A375 cells in NCG mice); settings: compound 40 mg/kg + anti PD-1 10 mg/kg; for Mean ± SEM (tumor size): in mm³ (unit assumed)
Description: A375 cells in logarithmic growth phase were collected, cultured in Mitomycin C for 2 h, and washed three times with PBS. After 5 days of co-culture of PBMC and A375 cells, PBMC and freshly digested A375 cells were collected, 5×10^5 PBMC and 4×10^6 A375 cells were inoculated subcutaneously on the right side of NCG mice according to 0.2 mL/mouse (containing 50% Matrigel). After inoculation, the mice were randomly divided into a model group and an administration group according to body weight of the mice, tumor size and animal weight were measured and recorded before and during administration, and tumor sizes of the model group and the administration group were compared after treatment to determine the efficacy.

[6] = Pharmacokinetic test on dogs; format: in vivo, male Beagle dogs; settings: male, Beagle, plasma, dog; for Vd: read-out: Vz
Description: as §1
In a pharmacokinetic test on dogs, male Beagle dogs of 8 to 10 kg were used and fasted overnight. 3 Beagle dogs were selected for orally intragastric administration (5 mg/kg). Another 3 Beagle dogs were selected for intravenous injection administration (1 mg/kg). Other operations were the same as the pharmacokinetic test on mice.

[7] = target: CD73 bound to the surfaces of A375 cells (Homo sapiens (Human), UniProt P21589); test: Inhibitory activity to CD73 enzyme bound to the surfaces of human melanoma A375 cells; format: cell-based; settings: AMP 200 μM, 16 h
Sequence of CD73 bound to the surfaces of A375 cells (P21589 27-574): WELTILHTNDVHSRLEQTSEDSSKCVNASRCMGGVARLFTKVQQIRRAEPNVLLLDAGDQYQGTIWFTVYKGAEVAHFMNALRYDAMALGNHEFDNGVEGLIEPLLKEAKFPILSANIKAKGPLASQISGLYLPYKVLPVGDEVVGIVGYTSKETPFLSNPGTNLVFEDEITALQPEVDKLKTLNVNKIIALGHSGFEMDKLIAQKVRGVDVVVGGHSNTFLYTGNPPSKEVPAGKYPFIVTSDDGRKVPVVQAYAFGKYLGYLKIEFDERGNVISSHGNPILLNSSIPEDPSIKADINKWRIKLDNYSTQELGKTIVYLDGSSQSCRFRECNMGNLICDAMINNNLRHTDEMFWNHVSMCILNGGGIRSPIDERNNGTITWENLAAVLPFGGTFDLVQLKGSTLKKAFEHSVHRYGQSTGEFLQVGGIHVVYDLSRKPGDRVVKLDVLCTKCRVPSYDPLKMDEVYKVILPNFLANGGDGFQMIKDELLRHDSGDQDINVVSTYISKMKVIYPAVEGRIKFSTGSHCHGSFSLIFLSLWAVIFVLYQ
Description: The compound was diluted with serum-free DMEM to form a stock solution (5×) of an appropriate concentration gradient, the compound solution was added to the cells in the above 96-well plate according to 20 μL/well, and the mixture was placed in an incubator and pre-incubated for 30 min.
(§8) A375-bound CD73 inhibition rates of the compound at different concentrations were calculated according to the following formula, the concentration of the compound was taken as the X-axis, the inhibition rate was taken as the Y-axis, and an IC50 value of the compound in inhibiting A375-bound CD73 was calculated by using Prism software.

[8] = Plasma protein binding by equilibrium dialysis, human plasma; format: in vitro ADME; settings: 37° C.
Description: as §2, §3, §4, §5, §6, §7

[9] = target: Human-CD73 enzyme (Homo sapiens (Human), UniProt P21589); test: In vitro inhibitory activity to recombinant human CD73 enzyme (ATP-GLO); format: biochemical; settings: Human-CD73 0.1 μg/mL, AMP 100 μM
Sequence of Human-CD73 enzyme (P21589 27-574): as above
Description: Human-CD73 (Novoprotein; C446) was diluted with Tris-MgCl2 buffer to form a stock solution (3×), which was placed in a 96-well plate according to 20 μL/well to obtain a final concentration of 0.1 μg/mL. The compound was diluted with Tris-MgCl2 buffer to form a stock solution (3×) of an appropriate concentration gradient, the compound solution was added to the above 96-well plate according to 20 μL/well and uniformly mixed with the Human-CD73 solution, and the mixture was incubated at the room temperature for 30 min. Meanwhile, a positive reference group (without the compound) and a negative reference group (without CD73) were set. AMP (Sigma; A1752-5G) was diluted with Tris-MgCl2 buffer to form a stock solution (3×), which was added to the above 96-well plate according to 20 μL/well to obtain a final concentration of 100 μM, and the mixture was uniformly mixed and incubated at 37° C. for 60 min; ATP (Sigma; A7699-1G) was diluted with Tris-MgCl2 buffer to form a stock solution (7×), which was added to the above 96-well plate according to 10 μL/well to obtain a final concentration of 100 μM, and the mixture was uniformly mixed, incubated for 5 min, and tested by using an ATP-GLO kit (Promega; G7573).
as §8, with “Human-CD73” for “A375-bound CD73”

[10] = po, orally intragastric 10 mg/kg
[11] = po, orally intragastric 5 mg/kg

In the case of `O=c1[nH]cc(-c2cc([C@H]3C[C@@H]3CF)c(Cl)nn2)c(=O)[nH]1` [Compound 1, 5-(6-chloro-5-((1S,2S)-2-(fluoromethyl)cyclopropyl)pyridazin-3-yl)pyrimidine-2,4(1H,3H)-dione], the half-life [1, 10] is reported as 199 min, the AUC(0-t) [1, 10] is reported as 5720 ng·h/mL and the Cmax [1, 10] is reported as 4300 ng/mL. The Tmax [1, 10] was 25.2 min, the EC50 [2] was 71.9 nM and the fraction unbound at 5 h, 1 μM [3] was 0.245. The fraction unbound at 5 h, 1 μM [4] was 0.474, the “% TGI” value [5] was 63.68% and the “Mean ± SEM (tumor size)” value [5] was 713.7 ± 89.22. It also gave an AUC(0-t) [6, 11] of 16900 ng·h/mL, a Cmax [6, 11] of 5480 ng/mL and a Tmax [6, 11] of 70.2 min. For the same molecule, the half-life [6, 11] was 160 min, the AUC(0-t) ([6]; intravenous injection 1 mg/kg) was 1460 ng·h/mL and the clearance ([6]; intravenous injection 1 mg/kg) was 12.2 mL/min/kg. It also gave a half-life ([6]; intravenous injection 1 mg/kg) of 56.4 min, a Vd ([6]; intravenous injection 1 mg/kg) of 0.99 L/kg and an IC50 [7] of 30.7 nM. It also gave a fraction unbound at 5 h, 1 μM [8] of 0.274.

For `O=c1[nH]cc(-c2cc([C@H]3C[C@@H]3C(F)F)c(Cl)nn2)c(=O)[nH]1` [Reference compound 2, 5-(6-chloro-5-((1S,2S)-2-(difluoromethyl)cyclopropyl)pyridazin-3-yl)pyrimidine-2,4(1H,3H)-dione, reference compound], the half-life [1, 10] was 65.4 min, the AUC(0-t) [1, 10] was 5380 ng·h/mL and the Cmax [1, 10] was 4540 ng/mL. For the same molecule, the Tmax [1, 10] was 25.2 min, the clearance ([1]; intravenous injection 3 mg/kg) was 22 mL/min/kg and the half-life ([1]; intravenous injection 3 mg/kg) was 75 min. The AUC(0-t) ([1]; intravenous injection 3 mg/kg) was 2360 ng·h/mL, the Vd ([1]; intravenous injection 3 mg/kg) was 2.4 L/kg and the EC50 [2] was 93.7 nM. For the same molecule, the fraction unbound at 5 h, 1 μM [3] was 0.177, the fraction unbound at 5 h, 1 μM [4] was 0.261 and the AUC(0-t) [6, 11] was 9000 ng·h/mL. It also gave a Cmax [6, 11] of 3620 ng/mL, a Tmax [6, 11] of 30 min and a half-life [6, 11] of 198 min. The AUC(0-t) ([6]; intravenous injection 1 mg/kg) was 1560 ng·h/mL, the clearance ([6]; intravenous injection 1 mg/kg) was 10.8 mL/min/kg and the half-life ([6]; intravenous injection 1 mg/kg) was 82.2 min. The Vd ([6]; intravenous injection 1 mg/kg) was 1.33 L/kg, the IC50 [7] was 67.3 nM and the fraction unbound at 5 h, 1 μM [8] was 0.098. The IC50 [9] was 16.8 nM.

With `Cc1nnc(-c2c[nH]c(=O)[nH]c2=O)cc1[C@H]1C[C@@H]1C(C)C` [Reference compound 3, 5-(5-((1S,2R)-2-isopropylcyclopropyl)-6-methylpyridazin-3-yl)pyrimidine-2,4(1H,3H)-dione, reference compound] the half-life [1, 10] was 71.4 min, the AUC(0-t) [1, 10] was 1270 ng·h/mL and the Cmax [1, 10] was 1270 ng/mL. For the same molecule, the Tmax [1, 10] was 19.8 min, the clearance ([1]; intravenous injection 3 mg/kg) was 70 mL/min/kg and the half-life ([1]; intravenous injection 3 mg/kg) was 16.8 min. It also gave an AUC(0-t) ([1]; intravenous injection 3 mg/kg) of 730 ng·h/mL, a Vd ([1]; intravenous injection 3 mg/kg) of 1.67 L/kg and an EC50 [2] of 341 nM. For the same molecule, the fraction unbound at 5 h, 1 μM [3] was 0.126, the fraction unbound at 5 h, 1 μM [4] was 0.122 and the “% TGI” value [5] was 41.52%. The “Mean ± SEM (tumor size)” value [5] was 1149 ± 167.8, the AUC(0-t) [6, 11] was 1540 ng·h/mL and the Cmax [6, 11] was 1200 ng/mL. For the same molecule, the Tmax [6, 11] was 25.2 min, the half-life [6, 11] was 55.8 min and the AUC(0-t) ([6]; intravenous injection 1 mg/kg) was 512 ng·h/mL. It also gave a clearance ([6]; intravenous injection 1 mg/kg) of 36 mL/min/kg, a half-life ([6]; intravenous injection 1 mg/kg) of 23.4 min and a Vd ([6]; intravenous injection 1 mg/kg) of 1.14 L/kg. For the same molecule, the fraction unbound at 5 h, 1 μM [8] was 0.103.
